{"source": "patent US20170042147A1", "about": "“A miticide composition of prolonged action and its manufacturing process, a miticide strip and a procedure to control Varroa destructor mite” (COOP. DE TRABAJO APÍCOLA PAMPERO LTDA, priority 2014, published 2017)", "origin": "cited, not measured here", "tested_on": "Varroa", "settings": "bee hives without brood; use in Europe"}
{"smiles": "O=C(O)C(=O)O", "note": "[Oxalic acid]", "values": [{"measurement": "efficacy against Varroa", "value": "excellent efficacy"}]}
